The test system of one experiment is Candida albicans. The experiment is described as follows: Proliferation assay (growth, OD600nm). Type of experiment: cell-based. The settings on record: whole organism growth, OD600nm over 6 hours at 25° C. The protocol:
(§1) Overnight cultures of organism were diluted back to an OD600nm of 0.1 in fresh media. Test compounds were added in a final concentration of 0.5% DMSO and the OD600nm was followed over 6 hours incubation at 25° C. Compounds described herein were screened to determine their activity as inhibitors of β-1,3-glucan synthase from Candida albicans and Aspergillus fumigatus and for their ability to inhibit the growth of Candida albicans and Aspergillus fumigatus whole organisms.

For the next experiment, the system named is Aspergillus fumigatus. The experiment is described as follows: Proliferation assay (growth, OD600nm). It is filed as cell-based. The settings on record: whole organism growth, OD600nm over 6 hours at 25° C. The protocol: as §1
Experiment [1] addresses β-1,3-glucan synthase from Candida albicans (Candida albicans, UniProt O13428). As to the kind of experiment: Glucan synthase assay (membrane preparation). It is filed as biochemical. The settings on record: UDP-[3H]-glucose incorporation, 30° C., 120 minutes, read-out: C. albicans Glucan Synth IC50. The protocol: (§2) The glucan synthase assay follows the incorporation of tritiated UDP-glucose into acid insoluble β-glucan as catalysed by the glucan synthase activity present in membrane preparations from Candida albicans and Aspergillus fumigatus. UDP-[^3H]-glucose (ca 0.01 μCi) is added to 100 μl assay buffer (50 mM Tris-Cl, pH8.0, 8% glycerol, 1 mM EDTA, 1.5 mM KF, 1 mM DTT, 20 μM GTPγS, 600 μM UDP-glucose) and the reaction initiated by the addition of 2.5 μl of enzyme preparation.
(§3) After incubation at 30° C. for 120 minutes, 10 μl of 30 mg/ml BSA is added with mixing and the reaction is terminated with 110 μl ice-cold 20% TCA. The precipitate is collected on a GF/B filter plate and washed three times with 200 μl water. Once dry, 200 μl of Microscint20 is added to each well and the plate is read on a Top-count scintillation counter.

Experiment [2] addresses β-1,3-glucan synthase from Aspergillus fumigatus (Aspergillus fumigatus, UniProt Q4WLT4). The experiment is described as follows: Glucan synthase assay (membrane preparation). It is filed as biochemical. The settings on record: UDP-[3H]-glucose incorporation, 30° C., 120 minutes, read-out: A. fumigatus Glucan Synth IC50. The protocol: as §2, §3

Structures are written as SMILES.

β-1,3-glucan synthase from Aspergillus fumigatus, sequence (Q4WLT4 1-1904): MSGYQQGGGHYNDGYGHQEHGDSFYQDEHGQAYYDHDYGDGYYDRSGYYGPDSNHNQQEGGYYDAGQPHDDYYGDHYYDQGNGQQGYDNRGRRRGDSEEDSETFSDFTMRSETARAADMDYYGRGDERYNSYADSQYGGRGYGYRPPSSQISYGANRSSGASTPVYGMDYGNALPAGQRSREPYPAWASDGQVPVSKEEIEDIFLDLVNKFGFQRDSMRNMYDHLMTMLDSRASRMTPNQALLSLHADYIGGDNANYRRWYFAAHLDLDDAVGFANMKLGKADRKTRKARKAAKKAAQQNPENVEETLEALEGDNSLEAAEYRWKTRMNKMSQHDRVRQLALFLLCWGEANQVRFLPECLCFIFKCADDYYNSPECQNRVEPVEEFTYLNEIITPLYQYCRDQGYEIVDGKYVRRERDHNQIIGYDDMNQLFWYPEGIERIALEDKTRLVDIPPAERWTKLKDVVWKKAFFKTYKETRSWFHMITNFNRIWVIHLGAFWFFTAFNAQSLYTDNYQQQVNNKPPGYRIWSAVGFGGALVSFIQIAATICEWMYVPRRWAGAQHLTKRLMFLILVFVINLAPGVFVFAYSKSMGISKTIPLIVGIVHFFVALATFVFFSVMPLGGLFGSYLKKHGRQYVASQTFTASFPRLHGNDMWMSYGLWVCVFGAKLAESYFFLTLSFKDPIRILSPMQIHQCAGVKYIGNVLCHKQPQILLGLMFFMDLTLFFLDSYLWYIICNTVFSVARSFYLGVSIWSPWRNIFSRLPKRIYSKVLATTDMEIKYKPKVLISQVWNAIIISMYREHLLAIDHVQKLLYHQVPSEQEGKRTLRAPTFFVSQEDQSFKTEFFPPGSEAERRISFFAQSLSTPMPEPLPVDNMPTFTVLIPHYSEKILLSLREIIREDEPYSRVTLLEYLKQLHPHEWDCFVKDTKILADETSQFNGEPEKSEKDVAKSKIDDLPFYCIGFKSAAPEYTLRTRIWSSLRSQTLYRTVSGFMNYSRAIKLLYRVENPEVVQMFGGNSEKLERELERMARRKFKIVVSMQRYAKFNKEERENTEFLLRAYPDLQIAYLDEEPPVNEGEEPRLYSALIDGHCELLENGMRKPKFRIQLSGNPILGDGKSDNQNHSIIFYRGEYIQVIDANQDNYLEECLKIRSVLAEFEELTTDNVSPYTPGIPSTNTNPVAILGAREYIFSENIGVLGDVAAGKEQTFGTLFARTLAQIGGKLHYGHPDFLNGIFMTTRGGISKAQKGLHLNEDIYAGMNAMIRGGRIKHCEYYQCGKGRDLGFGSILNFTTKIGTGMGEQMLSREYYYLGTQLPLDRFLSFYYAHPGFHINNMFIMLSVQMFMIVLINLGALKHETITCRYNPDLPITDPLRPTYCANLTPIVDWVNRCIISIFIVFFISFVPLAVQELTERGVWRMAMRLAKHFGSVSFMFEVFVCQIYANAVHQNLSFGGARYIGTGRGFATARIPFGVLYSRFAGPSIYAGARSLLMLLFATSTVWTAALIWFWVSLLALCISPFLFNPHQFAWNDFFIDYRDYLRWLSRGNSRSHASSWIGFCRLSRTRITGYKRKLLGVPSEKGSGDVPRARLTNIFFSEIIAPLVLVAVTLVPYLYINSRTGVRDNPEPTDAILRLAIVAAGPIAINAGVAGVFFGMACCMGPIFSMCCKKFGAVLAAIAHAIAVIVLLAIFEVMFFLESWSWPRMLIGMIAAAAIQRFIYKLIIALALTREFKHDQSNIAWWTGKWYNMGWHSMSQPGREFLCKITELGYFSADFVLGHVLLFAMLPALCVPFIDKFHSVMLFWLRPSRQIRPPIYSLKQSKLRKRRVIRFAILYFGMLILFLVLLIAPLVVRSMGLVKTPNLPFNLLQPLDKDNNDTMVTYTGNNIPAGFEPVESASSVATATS
β-1,3-glucan synthase from Candida albicans, sequence (O13428 1-1897): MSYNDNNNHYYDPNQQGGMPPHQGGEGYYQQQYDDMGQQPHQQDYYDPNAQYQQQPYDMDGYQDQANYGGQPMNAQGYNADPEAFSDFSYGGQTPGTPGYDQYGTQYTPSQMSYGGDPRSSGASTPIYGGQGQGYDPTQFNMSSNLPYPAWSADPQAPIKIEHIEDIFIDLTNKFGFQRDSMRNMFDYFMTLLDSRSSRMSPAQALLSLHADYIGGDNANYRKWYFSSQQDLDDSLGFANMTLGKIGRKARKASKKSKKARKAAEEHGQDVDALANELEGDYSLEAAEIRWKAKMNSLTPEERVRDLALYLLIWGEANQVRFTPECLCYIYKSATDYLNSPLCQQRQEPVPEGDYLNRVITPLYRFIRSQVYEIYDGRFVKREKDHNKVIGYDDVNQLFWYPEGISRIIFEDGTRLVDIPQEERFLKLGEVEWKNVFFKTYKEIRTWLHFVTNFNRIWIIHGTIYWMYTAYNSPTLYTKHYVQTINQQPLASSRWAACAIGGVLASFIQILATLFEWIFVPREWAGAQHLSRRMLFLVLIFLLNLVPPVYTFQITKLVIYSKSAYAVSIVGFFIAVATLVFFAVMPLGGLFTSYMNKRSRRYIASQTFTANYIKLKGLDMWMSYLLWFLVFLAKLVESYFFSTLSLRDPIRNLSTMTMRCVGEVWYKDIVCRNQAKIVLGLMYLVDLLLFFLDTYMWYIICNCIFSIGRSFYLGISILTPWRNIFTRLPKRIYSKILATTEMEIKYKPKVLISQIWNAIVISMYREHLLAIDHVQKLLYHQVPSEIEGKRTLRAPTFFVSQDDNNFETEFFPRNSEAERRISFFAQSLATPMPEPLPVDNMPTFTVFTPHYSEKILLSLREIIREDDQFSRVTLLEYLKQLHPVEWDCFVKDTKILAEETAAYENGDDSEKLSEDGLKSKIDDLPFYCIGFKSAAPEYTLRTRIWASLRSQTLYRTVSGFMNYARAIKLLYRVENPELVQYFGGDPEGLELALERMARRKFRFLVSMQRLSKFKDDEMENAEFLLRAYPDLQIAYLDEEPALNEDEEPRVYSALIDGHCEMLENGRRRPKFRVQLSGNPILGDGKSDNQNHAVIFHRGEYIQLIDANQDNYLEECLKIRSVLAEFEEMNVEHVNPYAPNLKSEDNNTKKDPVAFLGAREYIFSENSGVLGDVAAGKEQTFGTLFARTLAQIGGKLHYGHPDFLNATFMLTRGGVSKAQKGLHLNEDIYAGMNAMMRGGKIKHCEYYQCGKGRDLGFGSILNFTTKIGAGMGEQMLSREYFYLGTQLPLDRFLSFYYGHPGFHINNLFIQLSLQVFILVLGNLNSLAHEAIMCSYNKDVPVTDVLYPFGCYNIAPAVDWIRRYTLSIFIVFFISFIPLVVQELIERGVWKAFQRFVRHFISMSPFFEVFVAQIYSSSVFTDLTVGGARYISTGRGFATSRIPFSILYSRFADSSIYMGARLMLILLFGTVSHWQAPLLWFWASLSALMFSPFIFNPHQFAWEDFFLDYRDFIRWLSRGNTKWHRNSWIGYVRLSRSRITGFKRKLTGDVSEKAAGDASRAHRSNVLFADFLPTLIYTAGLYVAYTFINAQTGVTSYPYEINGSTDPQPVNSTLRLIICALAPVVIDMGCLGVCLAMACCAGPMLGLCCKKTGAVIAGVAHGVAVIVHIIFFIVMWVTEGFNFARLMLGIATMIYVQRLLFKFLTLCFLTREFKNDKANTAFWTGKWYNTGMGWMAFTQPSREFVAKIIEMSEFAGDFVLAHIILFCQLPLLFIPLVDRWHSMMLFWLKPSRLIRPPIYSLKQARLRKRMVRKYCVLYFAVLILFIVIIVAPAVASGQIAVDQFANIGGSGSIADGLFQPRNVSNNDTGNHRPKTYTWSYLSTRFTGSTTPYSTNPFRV

On to `N[C@H]1CCN(C(=O)CN(CC(=O)NCc2cccc(Cl)c2)c2ccc(Oc3ccccc3)cc2)C1` [OGT4154, 2-[[2-((S)-3-Aminopyrrolidin-1-yl)-2-oxo-ethyl]-(4-phenoxyphenyl)amino]-N-(3-chlorobenzyl)acetamide], for which the IC50 was found to be 22 µM in the experiment with Candida albicans and 12 µM in the experiment on Aspergillus fumigatus.
As to `N[C@H]1CCN(C(=O)CN(C(=O)/C=C/c2ccccc2)c2ccc(-c3cccc(OC(F)(F)F)c3)cc2)C1` [OGT4325, (E)-N-[2-((S)-3-Aminopyrrolidin-1-yl)-2-oxo-ethyl]-3-phenyl-N-(3′-trifluoromethoxy-biphenyl-4-yl)-acrylamide], the IC50 in experiment [1] worked out at 8.5 µM; in experiment [2] it was 15.6 µM; in the experiment with Candida albicans it was 8 µM.
Turning to `N[C@H]1CCN(C(=O)CN(CC(=O)NCc2cc(C(F)(F)F)cc(C(F)(F)F)c2)c2cccc(Oc3ccccc3)c2)C1` [OGT4165, 2-[[2-((S)-3-Aminopyrrolidin-1-yl)-2-oxo-ethyl]-(3-phenoxyphenyl)amino]-N-[3,5-bis-(trifluoromethyl)benzyl]acetamide], the half-inhibitory concentration (IC50) in experiment [1] worked out at 2.7 µM; in experiment [2] it was 6.2 µM; in the experiment on Candida albicans it was 19 µM; in the experiment with Aspergillus fumigatus, 43 µM.
For `N[C@H]1CCN(C(=O)CN(CC(=O)NCc2cccc(Cl)c2)c2ccccc2Oc2ccccc2)C1` [OGT3935, 2-[[2-((S)-3-Aminopyrrolidin-1-yl)-2-oxo-ethyl]-(2-phenoxyphenyl)amino]-N-(3-chlorobenzyl)acetamide], in that order: 12 µM, 38 µM, 55 µM and 93 µM.
Consider `N[C@H]1CCN(C(=O)CN(CC(=O)NCc2cc(F)cc(C(F)(F)F)c2)c2ccc(Oc3ccccc3)cc2)C1` [OGT4155, 2-[[2-((S)-3-Aminopyrrolidin-1-yl)-2-oxo-ethyl]-(4-phenoxyphenyl)amino]-N-[3-fluoro-5-(trifluoromethyl)benzyl]acetamide], for which the IC50 in experiment [1] was found to be 5.4 µM; in experiment [2] it was 5.2 µM; in the experiment on Candida albicans it was 17 µM; with Aspergillus fumigatus, 14 µM.
As to `N[C@H]1CCN(C(=O)CN(C(=O)/C=C/c2ccccc2)c2ccc(Oc3ccccc3)cc2)C1` [OGT4344, (E)-N-[2-((S)-3-Aminopyrrolidin-1-yl)-2-oxo-ethyl]-N-(4-phenoxyphenyl)-3-phenylacrylamide], the IC50 in experiment [1] was 34 µM; in experiment [2], 49 µM; in the experiment with Candida albicans, 27 µM; with Aspergillus fumigatus, 12 µM.
In the case of `CCOC(=O)c1cccc(-c2ccc(N(CC(=O)N3CC[C@H](N)C3)C(=O)/C=C/c3ccccc3)cc2)c1` [OGT4355, 4′-{[2-((S)-3-Aminopyrrolidin-1-yl)-2-oxo-ethyl]-[(E)-(3-phenylacryloyl)]-amino}-biphenyl-3-carboxylic acid, ethyl ester], the IC50 was found to be 18 µM in the experiment on Candida albicans and 4 µM with Aspergillus fumigatus.

In general, IC50 refers to the point on the concentration scale where inhibition reaches its midpoint.

Values taken from patent US8624022B2, “Substituted aniline derivatives” (UCB Pharma, S.A., priority 2006, dated 2014).
